Reference: patent publication US9168259B2 (GRÜNENTHAL GMBH, priority 2010, dated 2015)

Biological target: T1, KCNQ2/3 channels (Homo sapiens, UniProt O43525+O43526)
T1 construct: expressed in transfected cells
Experiment: Fluorescence assay using a voltage sensitive dye (fluorimetry)
Assay type: cell-based
Details: CHO-K1 cells expressing KCNQ2/3; for Emax: CHO-K1, plateau effect relative to saturated retigabine (50 μM) = 100%, negative values = antagonistic, read-out: Fluorimetry % efficacy (retigabine = 100%); for EC50: IC50 where % efficacy is negative, read-out: Fluorimetry EC50/IC50

T1 sequence (O43526 whole entry): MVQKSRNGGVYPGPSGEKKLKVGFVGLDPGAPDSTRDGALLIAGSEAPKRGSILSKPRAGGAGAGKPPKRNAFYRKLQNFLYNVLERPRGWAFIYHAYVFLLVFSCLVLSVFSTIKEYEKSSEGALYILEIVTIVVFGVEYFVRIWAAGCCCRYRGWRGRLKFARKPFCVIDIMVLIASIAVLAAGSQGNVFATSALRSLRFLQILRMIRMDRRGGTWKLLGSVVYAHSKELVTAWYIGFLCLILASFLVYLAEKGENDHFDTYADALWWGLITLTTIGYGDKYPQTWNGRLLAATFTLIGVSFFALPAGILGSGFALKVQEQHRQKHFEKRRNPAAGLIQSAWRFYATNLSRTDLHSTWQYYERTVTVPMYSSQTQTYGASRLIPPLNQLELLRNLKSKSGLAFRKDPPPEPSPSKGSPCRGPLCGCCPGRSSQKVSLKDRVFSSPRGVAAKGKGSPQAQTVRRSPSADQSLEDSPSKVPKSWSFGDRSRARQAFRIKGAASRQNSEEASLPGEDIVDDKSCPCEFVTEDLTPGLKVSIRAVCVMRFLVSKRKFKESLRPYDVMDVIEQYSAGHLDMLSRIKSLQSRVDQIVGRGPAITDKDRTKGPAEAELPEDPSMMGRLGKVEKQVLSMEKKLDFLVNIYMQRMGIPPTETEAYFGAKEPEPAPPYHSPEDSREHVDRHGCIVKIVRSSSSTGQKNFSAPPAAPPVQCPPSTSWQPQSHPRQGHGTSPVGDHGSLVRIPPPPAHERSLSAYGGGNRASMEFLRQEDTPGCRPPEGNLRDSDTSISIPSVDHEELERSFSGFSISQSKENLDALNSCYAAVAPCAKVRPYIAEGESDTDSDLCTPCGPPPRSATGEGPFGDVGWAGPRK
T1 sequence (O43525 whole entry): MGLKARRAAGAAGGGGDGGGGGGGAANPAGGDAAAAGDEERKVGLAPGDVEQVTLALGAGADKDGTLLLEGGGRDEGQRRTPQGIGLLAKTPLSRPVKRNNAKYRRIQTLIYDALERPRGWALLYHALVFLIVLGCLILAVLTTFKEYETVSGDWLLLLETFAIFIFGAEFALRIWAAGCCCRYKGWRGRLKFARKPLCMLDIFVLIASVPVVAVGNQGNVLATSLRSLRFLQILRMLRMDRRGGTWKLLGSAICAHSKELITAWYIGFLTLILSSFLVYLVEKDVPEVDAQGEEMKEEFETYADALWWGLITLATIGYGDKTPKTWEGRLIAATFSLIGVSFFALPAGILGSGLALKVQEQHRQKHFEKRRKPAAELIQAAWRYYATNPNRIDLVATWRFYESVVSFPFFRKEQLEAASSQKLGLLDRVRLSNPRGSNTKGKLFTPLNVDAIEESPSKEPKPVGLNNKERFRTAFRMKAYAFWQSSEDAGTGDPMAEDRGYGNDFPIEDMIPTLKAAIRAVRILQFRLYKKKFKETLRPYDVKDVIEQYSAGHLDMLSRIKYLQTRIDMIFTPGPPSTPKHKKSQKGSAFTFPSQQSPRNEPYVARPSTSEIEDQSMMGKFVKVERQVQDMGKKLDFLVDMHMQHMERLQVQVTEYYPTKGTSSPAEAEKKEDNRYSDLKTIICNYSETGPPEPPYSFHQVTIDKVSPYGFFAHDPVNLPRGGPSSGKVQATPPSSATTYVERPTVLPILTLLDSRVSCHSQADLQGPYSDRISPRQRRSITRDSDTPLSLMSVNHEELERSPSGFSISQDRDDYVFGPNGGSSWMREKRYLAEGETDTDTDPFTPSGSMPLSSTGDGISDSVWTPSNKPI

Emax [%]	EC50 [nM]	SMILES
114	870	CCSc1nc(N(C)CC2CCCOC2)cc(C)c1C(=O)NCc1cccc(F)c1 (stereo not drawn) [Example 175, 2-Ethylsulfanyl-N-[(3-fluorophenyl)-methyl]-4-methyl-6-[methyl-(tetrahydro-pyran-3-yl-methyl)-amino]-pyridine-3-carboxylic acid amide]
215	136	CSc1nc(N2CCOC[C@H]2C)cc(C)c1C(=O)NCc1ccc(F)cc1 [Example 176, N-[(4-Fluorophenyl)-methyl]-4-methyl-6-[(3R)-3-methyl-morpholin-4-yl]-2-methylsulfanyl-pyridine-3-carboxylic acid amide]
174	97	CCSc1nc(N2CCOC[C@H]2C)cc(C)c1C(=O)NCc1ccc(F)cc1 [Example 177, 2-Ethylsulfanyl-N-[(4-fluorophenyl)-methyl]-4-methyl-6-[(3R)-3-methyl-morpholin-4-yl]-pyridine-3-carboxylic acid amide]
147	54	CCSc1nc(N2CCOCC2CC)cc(C)c1C(=O)NCc1cccc(F)c1 (stereo not drawn) [Example 178, 6-(3-Ethyl-morpholin-4-yl)-2-ethylsulfanyl-N-[(3-fluorophenyl)-methyl]-4-methyl-pyridine-3-carboxylic acid amide]
190	243	CCSc1nc(N2CCOC[C@H]2COC)cc(C)c1C(=O)NCc1cccc(F)c1 [Example 179, 2-Ethylsulfanyl-N-[(3-fluorophenyl)-methyl]-6-[(3R)-3-(methoxymethyl)-morpholin-4-yl]-4-methyl-pyridine-3-carboxylic acid amide]
123	86	CCSc1nc(N2CCOC[C@@H]2COC)cc(C)c1C(=O)NCc1cccc(F)c1 [Example 180, 2-Ethylsulfanyl-N-[(3-fluorophenyl)-methyl]-6-[(3S)-3-(methoxymethyl)-morpholin-4-yl]-4-methyl-pyridine-3-carboxylic acid amide]
167	255	COc1nc(N2CCOC[C@H]2C)cc(C)c1C(=O)NCc1ccc(F)cc1 [Example 181, N-[(4-Fluorophenyl)-methyl]-2-methoxy-4-methyl-6-[(3R)-3-methyl-morpholin-4-yl]-pyridine-3-carboxylic acid amide]
146	125	CCOc1nc(N2CCOC[C@H]2C)cc(C)c1C(=O)NCc1ccc(F)cc1 [Example 182, 2-Ethoxy-N-[(4-fluorophenyl)-methyl]-4-methyl-6-[(3R)-3-methyl-morpholin-4-yl]-pyridine-3-carboxylic acid amide]
221	168	Cc1cc(N2CCOC[C@H]2C)nc(N(C)C)c1C(=O)NCCCC(C)(C)C [Example 183, 2-Dimethylamino-N-(4,4-dimethyl-pentyl)-4-methyl-6-[(3R)-3-methyl-morpholin-4-yl]-pyridine-3-carboxylic acid amide]
228	221	CCN(C)c1nc(N2CCOC[C@H]2C)cc(C)c1C(=O)NCCCC(C)(C)C [Example 184, N-(4,4-Dimethyl-pentyl)-2-(ethyl-methyl-amino)-4-methyl-6-[(3R)-3-methyl-morpholin-4-yl]-pyridine-3-carboxylic acid amide]
238	15	Cc1cc(N2CCOC[C@H]2C)nc(C(C)C)c1C(=O)NCCCC(C)(C)C [Example 185, N-(4,4-Dimethyl-pentyl)-2-isopropyl-4-methyl-6-[(3R)-3-methyl-morpholin-4-yl]-pyridine-3-carboxylic acid amide]
240	63	COc1nc(N2CCOC[C@H]2C)cc(C)c1C(=O)NCCCC(C)(C)C [Example 186, N-(4,4-Dimethyl-pentyl)-2-methoxy-4-methyl-6-[(3R)-3-methyl-morpholin-4-yl]-pyridine-3-carboxylic acid amide]
242	49	CCOc1nc(N2CCOC[C@H]2C)cc(C)c1C(=O)NCCCC(C)(C)C [Example 187, N-(4,4-Dimethyl-pentyl)-2-ethoxy-4-methyl-6-[(3R)-3-methyl-morpholin-4-yl]-pyridine-3-carboxylic acid amide]
154	343	CCN(C)c1nc(N2CCOCC2)cc(C)c1C(=O)NCc1ccc(C(F)(F)F)cc1 [Example 188, 2-(Ethyl-methyl-amino)-4-methyl-6-morpholin-4-yl-N-[[4-(trifluoromethyl)-phenyl]-methyl]pyridine-3-carboxylic acid amide]
225	284	CCN(C)c1nc(N2CCOCC2)cc(C)c1C(=O)NCCCC(C)(C)C [Example 189, N-(4,4-Dimethyl-pentyl)-2-(ethyl-methyl-amino)-4-methyl-6-morpholin-4-yl-pyridine-3-carboxylic acid amide]
207	2500	CCN(C)c1nc(N2CCOCC2)cc(C)c1C(=O)NCCCC(F)(F)F [Example 190, 2-(Ethyl-methyl-amino)-4-methyl-6-morpholin-4-yl-N-(4,4,4-trifluoro-butyl)-pyridine-3-carboxylic acid amide]

Emax [%]	EC50 [nM]	SMILES
214	265	CCN(C)c1nc(N2CCOCC2)cc(C)c1C(=O)NCc1ccc(Cl)cc1 [Example 191, N-[(4-Chlorophenyl)-methyl]-2-(ethyl-methyl-amino)-4-methyl-6-morpholin-4-yl-pyridine-3-carboxylic acid amide]
236	46	CSc1nc(N2CCOC[C@H]2C)cc(C)c1C(=O)NCCCC(C)(C)C [Example 192, N-(4,4-Dimethyl-pentyl)-4-methyl-6-[(3R)-3-methyl-morpholin-4-yl]-2-methylsulfanyl-pyridine-3-carboxylic acid amide]
246	29	CCSc1nc(N2CCOC[C@H]2C)cc(C)c1C(=O)NCCCC(C)(C)C [Example 193, N-(4,4-Dimethyl-pentyl)-2-ethylsulfanyl-4-methyl-6-[(3R)-3-methyl-morpholin-4-yl]-pyridine-3-carboxylic acid amide]
189	31	CCC(C)c1nc(N2CCOC[C@H]2C)cc(C)c1C(=O)NCc1ccc(F)cc1 (stereo partly drawn) [Example 194, N-[(4-Fluorophenyl)-methyl]-4-methyl-6-[(3R)-3-methyl-morpholin-4-yl]-2-(1-methyl-propyl)-pyridine-3-carboxylic acid amide]
242	13	CCC(C)c1nc(N2CCOC[C@H]2C)cc(C)c1C(=O)NCCCC(C)(C)C (stereo partly drawn) [Example 195, N-(4,4-Dimethyl-pentyl)-4-methyl-6-[(3R)-3-methyl-morpholin-4-yl]-2-(1-methyl-propyl)-pyridine-3-carboxylic acid amide]
197	103	Cc1cc(N2CCOC[C@H]2C)nc(C2CC2)c1C(=O)NCc1ccc(F)cc1 [Example 196, 2-Cyclopropyl-N-[(4-fluorophenyl)-methyl]-4-methyl-6-[(3R)-3-methyl-morpholin-4-yl]-pyridine-3-carboxylic acid amide]
211	142	CCCc1nc(N2CCOC[C@H]2C)cc(C)c1C(=O)NCc1ccc(F)cc1 [Example 197, N-[(4-Fluorophenyl)-methyl]-4-methyl-6-[(3R)-3-methyl-morpholin-4-yl]-2-propyl-pyridine-3-carboxylic acid amide]
246	19	Cc1cc(N2CCOC[C@H]2C)nc(C2CC2)c1C(=O)NCCCC(C)(C)C [Example 198, 2-Cyclopropyl-N-(4,4-dimethyl-pentyl)-4-methyl-6-[(3R)-3-methyl-morpholin-4-yl]-pyridine-3-carboxylic acid amide]
232	50	CCCc1nc(N2CCOC[C@H]2C)cc(C)c1C(=O)NCCCC(C)(C)C [Example 199, N-(4,4-Dimethyl-pentyl)-4-methyl-6-[(3R)-3-methyl-morpholin-4-yl]-2-propyl-pyridine-3-carboxylic acid amide]
22		CCSc1nc(N(C)c2ccncc2)cc(C)c1C(=O)NCc1cccc(F)c1 [Example 200, 2-Ethylsulfanyl-N-[(3-fluorophenyl)-methyl]-4-methyl-6-(methyl-pyridin-4-yl-amino)-pyridine-3-carboxylic acid amide]
127	135	CCSc1nc(N2CCOCC2)cc(C)c1C(=O)NCc1ccc(F)c(C)c1 [Example 201, 2-Ethylsulfanyl-N-[(4-fluoro-3-methyl-phenyl)-methyl]-4-methyl-6-morpholin-4-yl-pyridine-3-carboxylic acid amide]
129	5990	CCSc1nc(N2CCOCC2)cc(C)c1C(=O)NCC(O)Cc1ccccc1 (stereo not drawn) [Example 202, 2-Ethylsulfanyl-N-(2-hydroxy-3-phenyl-propyl)-4-methyl-6-morpholin-4-yl-pyridine-3-carboxylic acid amide]
220	219	CCN(C)c1nc(N2CCOCC2)cc(C)c1C(=O)NCc1ccc(F)c(F)c1 [Example 203, N-[(3,4-Difluoro-phenyl)-methyl]-2-(ethyl-methyl-amino)-4-methyl-6-morpholin-4-yl-pyridine-3-carboxylic acid amide]
239	141	CCN(C)c1nc(N2CCOCC2)cc(C)c1C(=O)NCc1cc(F)cc(F)c1 [Example 204, N-[(3,5-Difluoro-phenyl)-methyl]-2-(ethyl-methyl-amino)-4-methyl-6-morpholin-4-yl-pyridine-3-carboxylic acid amide]
205	898	Cc1cc(N2CCOCC2)nc(N(C)C)c1C(=O)NCc1ccc(F)cc1 [Example 205, 2-Dimethylamino-N-[(4-fluorophenyl)-methyl]-4-methyl-6-morpholin-4-yl-pyridine-3-carboxylic acid amide]
207	402	Cc1cc(N2CCOCC2)nc(N(C)C)c1C(=O)NCc1ccc(F)c(F)c1 [Example 206, N-[(3,4-Difluoro-phenyl)-methyl]-2-dimethylamino-4-methyl-6-morpholin-4-yl-pyridine-3-carboxylic acid amide]
